# Measured values taken from patent publication US20180098969A1, “HODGKIN LYMPHOMA THERAPY” (Purdue Pharmaceutical Products L.P., priority 2016, published 2018).
# Tests used:
# L428 cells = assay: Xenograft in NSG mice, HE staining and immunohistochemistry; format: in vivo
# Source text: Immunodeficient NOD-SCID-gammac−/− (NSG) mice aged 5 to 6 weeks were purchased from Charles River (NOD.Cg-Prkdcscid Il2rgtm1Wjl/SzJ). The mice arrived two weeks before the beginning of the experiments and were housed in micro-isolator cages during the entire course of the study. Immediately prior to the injection of Hodgkin lymphoma cells, mice were exposed to 3 Gy gamma irradiation using an IBL637 ^137Cs irradiator at a dose rate of 0.61 Gy/min. From 10^3 to 10^6 cells, either from the original cell lines or following amplification, were injected intravenously via the retro-orbital sinus. The mice were sacrificed by cervical dislocation and different organs were analysed and tumoural infiltration examined using multiple techniques.
# Two independent experiments were performed to investigate the dose-effect of EDO-S101 in NSG mice eight weeks after xenografting with L428 cells as in Example 8. The aim of the protocol shown in FIG. […]
# The mice were sacrificed by cervical dislocation. The sampled organs consisted of the eyes (site of injection), liver, spleen and bone marrow. Following dissection of different organs, including tumours, the first portion was used for flow cytometry (FACS) and cytogenetic analyses while the second was fixed in 4% paraformaldehyde (PFA) for immunohistochemistry (IHC). To obtain a single cell suspension, the tissues were first cut into pieces. Thereafter, the cells were physically disaggregated using an 80 μm nylon cell strainer and filtered a second time through a 70 μm nylon cell strainer (BD Biosciences, Erembodegem, Belgium).
# Organs were fixed in 4% PFA, trimmed and post-fixed in 70° ethanol. They were then briefly processed using a vacuum inclusion processor and paraffin blocks were prepared. Five micrometer-thick sections were cut from these blocks and the resulting sections were stained with hemotoxylin-eosine (H&E) for histopathological analysis. In addition, IHC was carried out on of the totality of liver and spleen specimens for confirmation of the spread of engrafted cells. The search for single cells or small groups of grafted Hodgkin lymphoma cells was performed using an anti-CD30 antibody (DAKO, France; 1:40, EDTA pH9 pre-treatment) and the Ventana Discovery XT IHC system. Apoptosis and tumour necrosis were analysed.
# Microscopic findings were assigned a severity score based upon the following scale: “0”=within physiological limits, “1”=minimal, “2”=mild, “3”=moderate, “4”=marked, “5”=severe. This severity score was attributed according to the size and number of observed lesions.
# L1236 cell line = assay: Cell cycle checkpoint proteins and gene expression; format: cell-based, human; settings: EDO-S101 alone
# Experimental: 1.56 μM of EDO-S101 was administered to two Hodgkin lymphoma cell lines, the bendamustine naïve cell line L1236 and the bendamustine resistant cell line R100. In a second experiment, Brentuximab Vedotin was administered at a concentration of 3.12 μg/ml to the L1236 cell line and at a concentration of 0.39 μg/ml to the R100 cell line. Finally, in a third experiment EDO-S101 and Brentuximab Vedotin were administered in combination to each of the two cell lines at the same concentrations that they were administered in the monotherapy experiments.
# [1] = two doses of 60 mg/kg three weeks apart
compound,measurement,setting,value
Cn1c(CCCCCCC(=O)NO)nc2cc(N(CCCl)CCCl)ccc21 [EDO-S101],Liver: Tumour infiltration: Marked,"L428 cells; 1 * 60 mg/kg, % of mice",0.0%
same,Liver: Tumour infiltration: Mild,"L428 cells; 1 * 60 mg/kg, % of mice",25.0%
same,Liver: Tumour infiltration: Minimal,"L428 cells; 1 * 60 mg/kg, % of mice",25.0%
same,Liver: Tumour infiltration: Moderate,"L428 cells; 1 * 60 mg/kg, % of mice",25.0%
same,Liver: Tumour infiltration: No,"L428 cells; 1 * 60 mg/kg, % of mice",25.0%
same,Liver: Tumour infiltration: Overall,"L428 cells; 1 * 60 mg/kg, % of mice",75.0%
same,Liver: Tumour infiltration: Severe,"L428 cells; 1 * 60 mg/kg, % of mice",0.0%
same,Tumour presence: Animals with tumour infiltration in liver and in the injection area,"L428 cells; 1 * 60 mg/kg, % of mice",75.0%
same,Tumour presence: Overall,"L428 cells; 1 * 60 mg/kg, % of mice",100.0%
same,Injection site: Tumour cell necrosis/apoptosis: Marked,"L428 cells; 2 * 60 mg/kg, % of mice",33.3%
same,Injection site: Tumour cell necrosis/apoptosis: Mild,"L428 cells; 2 * 60 mg/kg, % of mice",66.7%
same,Injection site: Tumour cell necrosis/apoptosis: Minimal,"L428 cells; 2 * 60 mg/kg, % of mice",0.0%
same,Injection site: Tumour cell necrosis/apoptosis: Moderate,"L428 cells; 2 * 60 mg/kg, % of mice",0.0%
same,Injection site: Tumour cell necrosis/apoptosis: No,"L428 cells; 2 * 60 mg/kg, % of mice",0.0%
same,Injection site: Tumour cell necrosis/apoptosis: Overall,"L428 cells; 2 * 60 mg/kg, % of mice",100.0%
same,Injection site: Tumour cell necrosis/apoptosis: Severe,"L428 cells; 2 * 60 mg/kg, % of mice",0.0%
same,Injection site: Tumour infiltration: Marked,"L428 cells; 2 * 60 mg/kg, % of mice",11.1%
same,Injection site: Tumour infiltration: Mild,"L428 cells; 2 * 60 mg/kg, % of mice",0.0%
same,Injection site: Tumour infiltration: Minimal,"L428 cells; 2 * 60 mg/kg, % of mice",0.0%
same,Injection site: Tumour infiltration: Moderate,"L428 cells; 2 * 60 mg/kg, % of mice",0.0%
same,Injection site: Tumour infiltration: No,"L428 cells; 2 * 60 mg/kg, % of mice",0.0%
same,Injection site: Tumour infiltration: Overall,"L428 cells; 2 * 60 mg/kg, % of mice",11.1%
same,Injection site: Tumour infiltration: Severe,"L428 cells; 2 * 60 mg/kg, % of mice",0.0%
same,Liver: Tumour cell necrosis/apoptosis: Marked,"L428 cells; 2 * 60 mg/kg, % of mice",0.0%
same,Liver: Tumour cell necrosis/apoptosis: Mild,"L428 cells; 2 * 60 mg/kg, % of mice",0.0%
same,Liver: Tumour cell necrosis/apoptosis: Minimal,"L428 cells; 2 * 60 mg/kg, % of mice",0.0%
same,Liver: Tumour cell necrosis/apoptosis: Moderate,"L428 cells; 2 * 60 mg/kg, % of mice",0.0%
same,Liver: Tumour cell necrosis/apoptosis: No,"L428 cells; 2 * 60 mg/kg, % of mice",100.0%
same,Liver: Tumour cell necrosis/apoptosis: Overall,"L428 cells; 2 * 60 mg/kg, % of mice",0.0%
same,Liver: Tumour cell necrosis/apoptosis: Severe,"L428 cells; 2 * 60 mg/kg, % of mice",0.0%
same,Liver: Tumour infiltration: Marked,"L428 cells; 2 * 60 mg/kg, % of mice",0.0%
same,Liver: Tumour infiltration: Mild,"L428 cells; 2 * 60 mg/kg, % of mice",11.1%
same,Liver: Tumour infiltration: Minimal,"L428 cells; 2 * 60 mg/kg, % of mice",33.3%
same,Liver: Tumour infiltration: Moderate,"L428 cells; 2 * 60 mg/kg, % of mice",0.0%
same,Liver: Tumour infiltration: No,"L428 cells; 2 * 60 mg/kg, % of mice",55.6%
same,Liver: Tumour infiltration: Overall,"L428 cells; 2 * 60 mg/kg, % of mice",44.4%
same,Liver: Tumour infiltration: Severe,"L428 cells; 2 * 60 mg/kg, % of mice",0.0%
same,Tumour presence: Animals with tumour infiltration in liver and in the injection area,"L428 cells; 2 * 60 mg/kg, % of mice",0.0%
same,Tumour presence: Overall,"L428 cells; 2 * 60 mg/kg, % of mice",55.6%
same,severity of tumoural cell infiltration,L428 cells; single 60 or 80 mg/kg or two injections of 60 mg/kg,significant decrease in the severity of tumoural cell infiltration
same,tumour regression,L428 cells; single dose of 60 mg/kg,significant tumour regression
same,mice with tumour lesions,"L428 cells; single dose of 60 mg/kg, 60 mg/kg",only one mouse had moderate tumour lesions
same,tumour regression,"L428 cells; two administrations of 60 mg/kg, versus control and single 60 mg/kg",Significant tumour regression
same,infiltration in the liver,L428 cells; [1],Only one mouse exhibited a moderate level of infiltration in the liver
same,"tumours in organs (liver, spleen, bone marrow)",L428 cells; [1],No tumours were observed in any organs
same,effect on cell cycle checkpoint proteins,L1236 cell line,activated cell cycle checkpoint proteins
